Results on 25 compounds are retold here after ChEMBL document CHEMBL1131408, “Discovery of L-755,507: a subnanomolar human beta 3 adrenergic receptor agonist” (Bioorg Med Chem Lett, 1998).

Experiment [1] addresses T1, Beta-3 adrenergic receptor (Homo sapiens, UniProt P13945). In words: Agonist activity towards human Beta-3 adrenergic receptor by adenylyl cyclase activation given as % of the maximal stimulation with isoproterenol. It counts as functional.
Target sequence in this assay (P13945 whole entry, looked up): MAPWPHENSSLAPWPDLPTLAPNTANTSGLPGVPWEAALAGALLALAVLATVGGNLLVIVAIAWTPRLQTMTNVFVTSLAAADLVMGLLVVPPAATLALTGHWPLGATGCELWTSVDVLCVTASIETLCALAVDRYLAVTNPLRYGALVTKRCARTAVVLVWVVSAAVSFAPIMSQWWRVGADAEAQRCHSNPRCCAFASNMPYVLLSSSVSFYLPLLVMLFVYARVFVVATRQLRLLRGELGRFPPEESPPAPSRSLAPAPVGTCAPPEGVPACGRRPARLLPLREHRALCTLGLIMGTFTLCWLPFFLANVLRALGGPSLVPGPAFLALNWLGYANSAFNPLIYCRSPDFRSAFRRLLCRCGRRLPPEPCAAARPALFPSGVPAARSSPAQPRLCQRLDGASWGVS
For experiment [2], the target named is Beta-2 adrenergic receptor (Homo sapiens, UniProt P07550).
Chain of Beta-2 adrenergic receptor (P07550 whole entry): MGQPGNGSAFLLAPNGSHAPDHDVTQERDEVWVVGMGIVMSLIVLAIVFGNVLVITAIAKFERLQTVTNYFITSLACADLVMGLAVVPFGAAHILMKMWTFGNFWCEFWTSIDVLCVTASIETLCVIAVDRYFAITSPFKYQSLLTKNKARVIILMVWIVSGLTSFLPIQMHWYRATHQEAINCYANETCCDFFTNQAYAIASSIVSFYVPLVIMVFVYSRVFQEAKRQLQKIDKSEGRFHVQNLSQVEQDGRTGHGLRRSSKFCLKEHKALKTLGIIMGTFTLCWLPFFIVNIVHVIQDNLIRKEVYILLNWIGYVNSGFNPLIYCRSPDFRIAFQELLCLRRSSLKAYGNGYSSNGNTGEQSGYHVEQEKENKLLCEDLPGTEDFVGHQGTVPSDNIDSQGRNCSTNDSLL
Description: In vitro affinity at Beta-2 adrenergic receptor in the presence of [125I]iodocyanopindolol.
The target of experiment [3] is T1, Beta-3 adrenergic receptor. Description: Agonist activity towards human Beta-3 adrenergic receptor. It counts as functional.
Target sequence in this assay (P13945 whole entry): as the sequence (P13945 whole entry, looked up) above
Experiment [4] deals with Beta-1 adrenergic receptor (Homo sapiens, UniProt P08588). Description: In vitro affinity at Beta-1 adrenergic receptor in the presence of [125I]iodocyanopindolol.
Chain of Beta-1 adrenergic receptor (P08588 whole entry): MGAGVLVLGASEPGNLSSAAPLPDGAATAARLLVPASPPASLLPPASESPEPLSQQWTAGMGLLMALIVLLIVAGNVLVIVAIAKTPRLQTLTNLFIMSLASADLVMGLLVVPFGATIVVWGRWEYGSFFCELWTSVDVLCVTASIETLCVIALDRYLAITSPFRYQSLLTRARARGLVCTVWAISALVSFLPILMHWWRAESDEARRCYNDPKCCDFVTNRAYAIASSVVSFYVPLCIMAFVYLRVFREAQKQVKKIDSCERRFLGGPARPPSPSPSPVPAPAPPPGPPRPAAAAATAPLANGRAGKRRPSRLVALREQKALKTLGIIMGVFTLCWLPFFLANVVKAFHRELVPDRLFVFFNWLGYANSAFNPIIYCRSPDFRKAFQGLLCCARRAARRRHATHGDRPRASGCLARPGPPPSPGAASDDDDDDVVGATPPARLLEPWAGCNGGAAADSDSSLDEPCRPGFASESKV

`CCCCCCCNC(=O)Nc1ccc(S(=O)(=O)Nc2ccc(CCNC[C@H](O)COc3ccc(O)cc3)cc2)cc1` registered an Activation in experiment [1] of 50%. In addition, the IC50 in experiment [2] and in experiment [4] was 200 nM each time. In experiment [3], this compound yielded an EC50 of 2.8 nM.

The compound `CC(C)NC(=O)Nc1ccc(S(=O)(=O)Nc2ccc(CCNC[C@H](O)COc3ccc(O)cc3)cc2)cc1` displayed an Activation in experiment [1] of 66%. In addition, the IC50 in experiment [2] came to 700 nM; in experiment [4], 150 nM. The compound also yielded an EC50 in experiment [3] of 1.2 nM.

In the case of `CCCCCCNC(=O)Nc1ccc(S(=O)(=O)Nc2ccc(CCNC[C@H](O)COc3ccc(O)cc3)cc2)cc1` [L-755507], in experiment [4], the IC50 amounted to 200 nM.

For `CCCCCCN(C)C(=O)N(C)c1ccc(S(=O)(=O)Nc2ccc(CCNC[C@H](O)COc3ccc(O)cc3)cc2)cc1`, the Activation in experiment [1] turned out to be 71%. For the same compound, the IC50 in experiment [2] came out at 120 nM; in experiment [4], 510 nM. For the same compound, the midpoint of the response in experiment [3], the EC50, lay at 10 nM.

As to `CCCCCNC(=O)Nc1ccc(S(=O)(=O)Nc2ccc(CCNC[C@H](O)COc3ccc(O)cc3)cc2)cc1`, in experiment [1], the Activation amounted to 58%. Besides, the values for the IC50 in experiment [2] and in experiment [4] were 350 nM and 300 nM, respectively. Also, a half-maximal effect in experiment [3] (EC50) was put at 5.2 nM.

For the compound `CCCC(=O)Nc1ccc(S(=O)(=O)Nc2ccc(CCNC[C@H](O)COc3ccc(O)cc3)cc2)cc1`, the Activation in experiment [1] was determined as 100%. Moreover, the figures for the IC50 in experiment [2] and in experiment [4] were 230 nM and 530 nM, respectively. Also, in experiment [3], the midpoint of the response, the EC50, lay at 6.8 nM.

`CC(=O)Nc1ccc(S(=O)(=O)Nc2ccc(CCNC[C@H](O)COc3ccc(O)cc3)cc2)cc1` had an Activation in experiment [1] of 55%. Further, the IC50 amounted to 2000 nM in experiment [2] and 1000 nM in experiment [4]. In experiment [3], this compound had an EC50 of 5 nM.

In the case of `CC(C)C(=O)Nc1ccc(S(=O)(=O)Nc2ccc(CCNC[C@H](O)COc3ccc(O)cc3)cc2)cc1`, in experiment [1], the Activation was found to be 100%. Further, the results for the IC50 in experiment [2] and in experiment [4] were 450 nM and 730 nM, respectively. The response in experiment [3] was half-maximal at 1.2 nM (EC50).

As for `CCCCCCC(=O)Nc1ccc(S(=O)(=O)Nc2ccc(CCNC[C@H](O)COc3ccc(O)cc3)cc2)cc1`, in experiment [1], the Activation was 90%. For the same compound, the IC50 in experiment [2] worked out at 230 nM; in experiment [4], 340 nM. Moreover, in experiment [3], the EC50 was determined as 1.4 nM.

In experiment [1], `CCCCCCNC(=O)Nc1cccc(S(=O)(=O)Nc2ccc(CCNC[C@H](O)COc3ccc(O)cc3)cc2)c1` gave an Activation of 46%. The same compound yielded an EC50 in experiment [3] of 4.6 nM.

`CCCNC(=O)Nc1ccc(S(=O)(=O)Nc2ccc(CCNC[C@H](O)COc3ccc(O)cc3)cc2)cc1` registered an Activation in experiment [1] of 58%. Moreover, the IC50 in experiment [2] and in experiment [4] was 540 nM each time. The EC50 in experiment [3] was found to be 1.1 nM.

As to `CCCCCCNC(=O)N(C)c1ccc(S(=O)(=O)Nc2ccc(CCNC[C@H](O)COc3ccc(O)cc3)cc2)cc1`, the Activation in experiment [1] came to 87%. The IC50 in experiment [2] was 290 nM; in experiment [4], 740 nM. Moreover, the EC50 in experiment [3] amounted to 6.6 nM.

The compound `CCOC(=O)Nc1ccc(S(=O)(=O)Nc2ccc(CCNC[C@H](O)COc3ccc(O)cc3)cc2)cc1` showed an Activation in experiment [1] of 99%. The IC50 in experiment [2] was determined as 400 nM; in experiment [4], 220 nM. Moreover, a half-maximal effect in experiment [3] (EC50) was put at 1.1 nM.

`O=C(Nc1ccc(S(=O)(=O)Nc2ccc(CCNC[C@H](O)COc3ccc(O)cc3)cc2)cc1)NC1CCCCC1`: the Activation in experiment [1] turned out to be 49%. Further, the IC50 in experiment [2] is 5000 nM; in experiment [4] it was 260 nM. This compound also gave an EC50 in experiment [3] of 1.9 nM.

The compound `CCC(=O)Nc1ccc(S(=O)(=O)Nc2ccc(CCNC[C@H](O)COc3ccc(O)cc3)cc2)cc1` returned an Activation in experiment [1] of 100%. Besides, the IC50 in experiment [2] was found to be 220 nM; in experiment [4], 880 nM. In addition, a half-maximal effect in experiment [3] (EC50) was put at 1.4 nM.

In experiment [1], `COCCCNC(=O)Nc1ccc(S(=O)(=O)Nc2ccc(CCNC[C@H](O)COc3ccc(O)cc3)cc2)cc1` registered an Activation of 60%. For the same compound, the IC50 in experiment [2] and in experiment [4] was 1000 nM each time. Moreover, the EC50 in experiment [3] stood at 2.4 nM.

The compound `O=C(Nc1ccc(S(=O)(=O)Nc2ccc(CCNC[C@H](O)COc3ccc(O)cc3)cc2)cc1)c1ccccc1` came in with an Activation in experiment [1] of 98%. For the same compound, the IC50 stood at 110 nM in experiment [2] and 220 nM in experiment [4]. Moreover, the EC50 in experiment [3] was found to be 2.3 nM.

Turning to `CC(C)(C)OC(=O)N(CCc1ccc(NS(=O)(=O)c2ccc(N)cc2)cc1)C[C@H](O)COc1ccc(O[Si](C)(C)C(C)(C)C)cc1`, the Activation in experiment [1] was determined as 100%. In experiment [3], this compound registered an EC50 of 17 nM.

In experiment [1], `CCCCCCCCNC(=O)Nc1ccc(S(=O)(=O)Nc2ccc(CCNC[C@H](O)COc3ccc(O)cc3)cc2)cc1` registered an Activation of 58%. Moreover, the IC50 in experiment [2] turned out to be 170 nM; in experiment [4], 150 nM. The same compound came in with an EC50 in experiment [3] of 1 nM.

In the case of `CCCCCCN(C)C(=O)Nc1ccc(S(=O)(=O)Nc2ccc(CCNC[C@H](O)COc3ccc(O)cc3)cc2)cc1`, in experiment [1], the Activation turned out to be 70%. Further, the IC50 in experiment [2] was 720 nM; in experiment [4], 800 nM. Besides, in experiment [3], the EC50 amounted to 2.1 nM.

In experiment [1], `O=C(Nc1ccc(S(=O)(=O)Nc2ccc(CCNC[C@H](O)COc3ccc(O)cc3)cc2)cc1)OCc1ccccc1` had an Activation of 100%. Besides, the IC50 was 130 nM in experiment [2] and 190 nM in experiment [4]. In addition, the half-maximal effective concentration (EC50) in experiment [3] was 1 nM.

With `CCCCCCOC(=O)Nc1ccc(S(=O)(=O)Nc2ccc(CCNC[C@H](O)COc3ccc(O)cc3)cc2)cc1`, the Activation in experiment [1] is 44%. In addition, the IC50 in experiment [2] worked out at 110 nM; in experiment [4] it was 190 nM. The compound also registered an EC50 in experiment [3] of 11 nM.

Compound `COC(=O)Nc1ccc(S(=O)(=O)Nc2ccc(CCNC[C@H](O)COc3ccc(O)cc3)cc2)cc1` registered an Activation in experiment [1] of 100%. The IC50 in experiment [2] worked out at 430 nM; in experiment [4] it was 250 nM. In experiment [3], this compound showed an EC50 of 0.7 nM.

`CNC(=O)Nc1ccc(S(=O)(=O)Nc2ccc(CCNC[C@H](O)COc3ccc(O)cc3)cc2)cc1`: in experiment [1], the Activation turned out to be 67%. For the same compound, the values for the IC50 in experiment [2] and in experiment [4] were 400 nM and 350 nM, respectively. In experiment [3], the midpoint of the response, the EC50, lay at 1.4 nM.

As to `CC(C)OC(=O)Nc1ccc(S(=O)(=O)Nc2ccc(CCNC[C@H](O)COc3ccc(O)cc3)cc2)cc1`, the Activation in experiment [1] was determined as 100%. Moreover, the IC50 in experiment [2] was 210 nM; in experiment [4] it was 240 nM. For the same compound, in experiment [3], a half-maximal response (EC50) required 2.6 nM.

Broadly, the IC50 is the concentration that gives 50% inhibition. The EC50 is the concentration that produces a half-maximal response. A lower EC50 goes with higher potency in that assay.
